# Measurements published in US9107909B2, “Materials and methods to enhance hematopoietic stem cells engraftment procedures” (priority 2008, dated 2015).
# Entries after “also recorded” stand apart in the source; their conditions may differ. Structures can show the parent of a compound that is named as a salt.
# Key:
# SKL cells = assay: HSPC homing to bone marrow in vivo; set-up: species or system mouse; settings: 10 microMolar AMD3100, cells incubated before homing assay; dihydrate
# Protocol: CD45.2 WBM was labeled with CFSE (Molecular Probes, Eugene, Oreg.) washed and treated on ice with either 1 microMolar dmPGE2 or vehicle. After treatment, cells were washed and 2×10^7 cells transplanted into lethally irradiated CD45.2 mice. After 16 hours, femurs and tibias were flushed, and a proportion of mouse marrow Lin^+ cells depleted using MACS microbeads (Miltenyi Biotech), stained with fluorochrome-conjugated-antibodies specific for biotin (lineage), c-kit (K), and Sca-1 (S) and the total number of CFSE^+ WBM (non lineage depleted), KL and SKL cells determined. For congenic homing studies, Lin^neg CD45.1 cells were treated on ice with 1 microMolar dmPGE2, vehicle, or PBS. After incubation, cells were washed and 2×10^6 cells transplanted into CD45.2 mice. After 16 hours, recipient bone marrow was harvested, lineage depleted, stained, and donor CD45.1 SKL cells determined. For competitive, head-to-head homing studies using sorted SKL cells, Lin^neg cells from CD45.2 and CD45.1 mice were FACS sorted, cells treated with either dmPGE2 or vehicle for 2 hours, washed and 3×10^4 CD45.1 (vehicle or dmPGE2 treated) plus 3×10^4 CD45.2 (dmPGE2 or vehicle treated) SKL cells transplanted into lethally irradiated F1 Hybrid mice. To evaluate the role of CXCR4 in homing studies, Lin^neg CD45.2 cells were treated on ice with vehicle or 1 microMolar dmPGE2 plus 10 microMolar AMD3100 (AnorMed Inc., Vancouver, BC, Canada) and 2×10^6 treated cells injected into lethally irradiated CD45.1 mice. Homed SKL cells were analyzed 16 hours post-transplant.
# Irrespective of its cause a marrow niche is required for HSPC to self-renew and differentiate and it is very likely that only HSPC homing to these niches can provide long-term repopulation. Referring now to FIG. 3A, in order to assess HSPC homing, CFSE labeled whole bone marrow (WBM) CD45.2 cells were pulsed with dmPGE2 or vehicle for 2 hours on ice, washed and injected IV in lethally irradiated CD45.2 hosts. After 16 hours, total CFSE^+ cells homing to bone marrow as well as the number of homed events within the KL and SKL cell populations were quantified.
# Highly purified SKL cells from both CD45.2 and CD45.1 mice were isolated by FACS sorting, treated with dmPGE2 or vehicle, and 3×10^4 vehicle-treated CD45.1 cells plus 3×10^4 dmPGE2-treated CD45.2 cells transplanted into CD45.1/CD45.2 mice. An additional cohort was concurrently transplanted with congenic strain and treatment groups were switched to test for any bias in strain homing. […] Although SKL cells are not a homogenous HSPC population, they are highly enriched for LTRC (Okada et al., 1992; Spangrude and Scollay, 1990).
# To evaluate the role of CXCR4 in homing, Lineage^neg CD45.2 cells were treated with vehicle or 1 microMolardmPGE2 plus 10 microMolar AMD3100, 2×10^6 treated cells injected into lethally-irradiated CD45.1 mice and homed SKL cells recovered 16 hours post-transplant and analyzed by FACS. Referring now to FIG. 11, homing efficiency of vehicle and dmPGE2 treated cells to bone marrow in the absence and presence of 10 microMolar AMD3100. Cells were incubated with AMD3100 for 30 minutes prior to the homing assay.
# CFU-GM = CFU-GM mobilization to peripheral blood in mice; format: in vivo, mouse; settings: for CFU-GM / peripheral blood stem cell mobilization with G-CSF: co-administered with G-CSF, 4 days, vs G-CSF alone
# Protocol: Since PGE2 increases CXCR4 receptor expression and SDF-1/CXCR4 signalling is important for trafficking and retention of HSPC in the marrow. […] Data are expressed as mean±SEM CFU-GM mobilized per ml of blood for N=3 mice each assayed individually.
# Mice were given SC treatments of 150 microgram/kg indomethacin or 150 microgram/kg baicalein (lipoxygenase inhibitor) in gelatin every 48 hours with or without G-CSF for 4 days. CFU-GM mobilization was determined as previously described (Pelus et. al., Experimental Hematology 33 (2005) 295-307). […] Data are expressed as mean±SEM CFU-GM mobilized per ml of blood for N=3 mice each assayed.
# Referring now to FIG. 16, mice were given daily, bid SC injections with G-CSF (1 microgram per mouse) or G-CSF+indomethacin (50 microgram per mouse) for 4 days. CFU-GM mobilization was determined as described (Pelus et. al., Experimental Hematology 33 (2005) 295-307).
# Mice were given daily, bid SC injections with vehicle or Indomethacin (50 microgram per mouse) for four days. On day 5, mice were given either vehicle or AMD3100 (5 mg/kg). One hour later mice were sacrificed and CFU-GM mobilization was determined as previously described (Pelus et. al., Experimental Hematology 33 (2005) 295-307). […] Data are expressed as mean±SEM, n=5 mice per group, each assayed individually.
# Mice were mobilized with G-CSF and CFU-GM in PB was compared to mobilization regimens with G-CSF and the combination of various NSAIDS (Aspirin [COX-1 and COX-2]; Licofelone [COX-2 and 5-LOX]; SC-560 [COX-1]; Valeryl Salicylate [COX-1]; Valdecoxib [COX-2]; NS-398 [COX-2]). […] In order to test the efficacy of two commonly used COX inhibitors, mice were mobilized with G-CSF or the combination of G-CSF and aspirin or ibuprofen (PO., bid, 4 days). CFU-GM was determined as previously described. Referring now to FIG. 28, dose-response analysis of G-CSF+Aspirin and G-CSF+Ibuprofen mobilization of CFU-GM to peripheral blood are present in bar graph form for a control group of mice treated with only G-CSF; for mice treated with G-CSF plus 10, 20 or 40 milligram/kg of aspirin; and for mice treated with G-CSF plus 10, 20 or 40 milligram/kg of ibuprofen. Data are expressed as mean±SEM, n=4 mice per group, each assayed individually.
# mobilized PBMC = assay: Competitive transplantation of mobilized PBMC; format: in vivo, mouse; settings: co-administered with G-CSF without stagger, 12 weeks post transplant, vs G-CSF alone
# Excerpt: Data are expressed as mean±SEM, n=5 mice per group, each assayed individually.
Structure (SMILES),effect of CXCR4 antagonist on SKL cell homing and on PGE2-enhanced homing (SKL cells),"baseline CFU-GM mobilization (CFU-GM; 150 μg/kg SC, alone)",CFU-GM / peripheral blood stem cell mobilization with G-CSF (CFU-GM),"increase in the number of mobilized progenitor cells (CFU-GM) (CFU-GM; 150 μg/kg SC once daily for 4 days, alone) [fold]","HSPC (CFU-GM) mobilization in combination with AMD3100 (CFU-GM; 50 microgram per mouse bid SC 4 days, AMD3100 5 mg/kg day 5)",CFU-GM / peripheral blood stem cell mobilization with G-CSF (CFU-GM; listed as Indomethacin),engraftment (competitive repopulating units) of mobilized PBMC (mobilized PBMC)
"c1cc(CN2CCCNCCNCCCNCC2)ccc1CN1CCCNCCNCCCNCC1 [AMD3100, 1,1′-[1,4-Phenylenebis(methylene)]bis[1,4,8,11-tetraazacyclotetradecane]octohydrobromide dihydrate]",reduced SKL cell homing and abrogated the improved homing efficiency; also recorded: significantly reduced,,,,,,
O=c1cc(-c2ccccc2)oc2cc(O)c(O)c(O)c12 [baicalein],,no effect,no effect,,,,
"COc1ccc2c(c1)c(CC(=O)O)c(C)n2C(=O)c1ccc(Cl)cc1 [indomethacin, 2-{1-[(4-chlorophenyl)carbonyl]-5-methoxy-2-methyl-1H-indol-3-yl}acetic acid]",,,highly synergistic increase; also recorded: larger fold increase,4,Mobilizes HSPC,synergistically mobilize; also recorded: synergistic effect,no improvement in engraftment
